The text below walks through data of PubChem BioAssay AID330 (DTP/NCI, 2004).

Molecules are shown by their SMILES. “And” between values parts separate entries of the source, which are not always exact repeats. Equal values may be shown once. Inconclusive results and toxic doses are left out.

For this test, the system named is P388 leukemia ip, CD2F1 mice, survival T/C. Nature of the test: NCI In Vivo Anticancer Drug Screen. Data for tumor model P388 Leukemia (intraperitoneal) in CD2F1 (CDF1) mice. The conditions noted are these: endpoint: median survival time, higher = longer survival. Put shortly:
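Mice carrying the transplanted tumor received test compound or vehicle. Survival was recorded in each group, and the value is the treated-group measurement divided by that of the vehicle-treated control group.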

Setting [1] is: dose: 50.0 mg/kg/injection, schedule: Q01DX005 (ip), vehicle: Klucel (hydroxypropylcellulose) (HPC).
The mark [2] stands for this setting: dose: 100.0 mg/kg/injection, schedule: Q01DX005 (ip), vehicle: Klucel (hydroxypropylcellulose) (HPC).
Where [3] appears, read: dose: 200.0 mg/kg/injection, schedule: Q01DX005 (ip), vehicle: Klucel (hydroxypropylcellulose) (HPC).
Setting [4] is: dose: 15.0 mg/kg/injection, schedule: Q01DX005 (ip), vehicle: saline with Tween-80.
Where [5] appears, read: dose: 30.0 mg/kg/injection, schedule: Q01DX005 (ip), vehicle: saline with Tween-80.
Where [6] appears, read: dose: 60.0 mg/kg/injection, schedule: Q01DX005 (ip), vehicle: saline with Tween-80.
Where [7] appears, read: dose: 60.0 mg/kg/injection, schedule: Q01DX005 (ip), vehicle: Klucel (hydroxypropylcellulose) (HPC).
Where [8] appears, read: dose: 120.0 mg/kg/injection, schedule: Q01DX005 (ip), vehicle: Klucel (hydroxypropylcellulose) (HPC).
Setting [9] is: dose: 240.0 mg/kg/injection, schedule: Q01DX005 (ip), vehicle: Klucel (hydroxypropylcellulose) (HPC).
The mark [10] stands for this setting: dose: 50.0 mg/kg/injection, schedule: Q01DX009 (ip), vehicle: saline with Tween-80.
Where [11] appears, read: dose: 100.0 mg/kg/injection, schedule: Q01DX009 (ip), vehicle: saline with Tween-80.
Setting [12] is: dose: 200.0 mg/kg/injection, schedule: Q01DX009 (ip), vehicle: saline with Tween-80.
The mark [13] stands for this setting: dose: 12.5 mg/kg/injection, schedule: Q01DX009 (ip), vehicle: saline with Tween-80.
Where [14] appears, read: dose: 25.0 mg/kg/injection, schedule: Q01DX009 (ip), vehicle: saline with Tween-80.
The mark [15] stands for this setting: dose: 120.0 mg/kg/injection, schedule: Q01DX005 (ip), vehicle: saline with Tween-80.
Where [16] appears, read: dose: 50.0 mg/kg/injection, schedule: Q01DX009 (ip), vehicle: saline.
The mark [17] stands for this setting: dose: 60.0 mg/kg/injection, schedule: Q01DX005 (ip), vehicle: saline.
The mark [18] stands for this setting: dose: 120.0 mg/kg/injection, schedule: Q01DX005 (ip), vehicle: saline.
Setting [19] is: dose: 240.0 mg/kg/injection, schedule: Q01DX005 (ip), vehicle: saline.
The mark [20] stands for this setting: dose: 12.5 mg/kg/injection, schedule: Q01DX005 (ip), vehicle: saline.
The mark [21] stands for this setting: dose: 50.0 mg/kg/injection, schedule: Q01DX005 (ip), vehicle: saline.

Regarding `CCOC(=O)c1cnc(NCCCCNc2ncc(C(=O)OCC)c(=O)[nH]2)[nH]c1=O`, the T/C under setting [1] was 98 % of control, the T/C under setting [2] was 90 % of control and the T/C under setting [3] was 90 % of control.
Regarding `CN(CC(N)=O)C(=O)N(CCCl)N=O`, the T/C was 160 % of control under setting [4], 201 % of control under setting [5] and 263 % of control under setting [6].
In the case of `C[CH2][Sn]([CH2]C)([O]C(=O)c1ccc2c(c1)OC(C)(C)O2)[O]C(=O)c1ccc2c(c1)OC(C)(C)O2`, the T/C runs as follows: (dose: 6.25 mg/kg/injection, schedule: Q01DX005 (ip), vehicle: Klucel (hydroxypropylcellulose) (HPC)) 117 % of control; (dose: 12.5 mg/kg/injection, schedule: Q01DX005 (ip), vehicle: Klucel (hydroxypropylcellulose) (HPC)) 116 % of control; (dose: 25.0 mg/kg/injection, schedule: Q01DX005 (ip), vehicle: Klucel (hydroxypropylcellulose) (HPC)) 120 % of control; under setting [1], 124 % of control.
For the compound `COc1ccc(C2c3cc4c(cc3OC(O)C2C)OCO4)cc1` (centres undefined), the T/C under setting [7] is 106 % of control, the T/C under setting [8] was 100 % of control and the T/C under setting [9] is 101 % of control.
On to `COC(=O)C(O)NC(N)=O` (centres undefined), for which the T/C was 98 % of control under setting [10], 94 % of control under setting [11] and 89 % of control under setting [12].
As to `CN(C)c1ccc(CN2CCCN(Cc3ccc(N(C)C)cc3)C2c2cc(Cl)ccc2O)cc1`, the T/C was 95 % of control under setting [11]; 90 % of control under setting [12]; 90 % of control (dose: 400.0 mg/kg/injection, schedule: Q01DX009 (ip), vehicle: saline with Tween-80).
Regarding `COC(=O)/C(C#N)=C(/SC)N(C)C`, the T/C is 104 % of control under setting [13]; 104 % of control under setting [14]; 102 % of control and 109 % of control under setting [10]; 103 % of control under setting [11].
Consider `O=C(O)C1=CC(c2ccccc2O)=NCCN1`, for which the T/C runs as follows: under setting [4], 97 % of control and 98 % of control; under setting [5], 102 % of control and 105 % of control; under setting [6], 114 % of control and 97 % of control; under setting [15], 103 % of control and 107 % of control.
As for `CCSCCCC(=O)O`, the T/C reads like this: (dose: 25.0 mg/kg/injection, schedule: Q01DX009 (ip), vehicle: saline) 100 % of control; under setting [16], 100 % of control; (dose: 100.0 mg/kg/injection, schedule: Q01DX009 (ip), vehicle: saline) 100 % of control.
For `CC12CN3CC(C)(C1=O)C(=O)C(C)(C3)C2=O`, the T/C under setting [17] is 94 % of control, the T/C under setting [18] is 92 % of control and the T/C under setting [19] is 94 % of control.
As for `COc1cc2c(cc1OC)CN(C)C(C)C2` (centres undefined), the T/C reads like this: under setting [20], 101 % of control; (dose: 25.0 mg/kg/injection, schedule: Q01DX005 (ip), vehicle: saline) 106 % of control; under setting [21], 109 % of control and 97 % of control.
As to `COC1(OC)C(C#N)(C#N)C2(C(=O)Nc3ccccc32)C1(OC)OC` (centres undefined), the T/C is 97 % of control under setting [7], 101 % of control under setting [8] and 103 % of control under setting [9].
As to `COc1ccc(CC2C(=O)NC(C)C(=O)N(C)C3C(=O)N(C)C(Cc4ccc(OC(C)=O)c(c4)Oc4ccc(cc4)C3OC(C)=O)C(=O)NC(C)C(=O)NC(C)C(=O)N2C)cc1` (centres undefined), where the note is “dose: 2.0 mg/kg/injection, schedule: Q01DX009 (ip), vehicle: none”, the T/C is 154 % of control.
Regarding `Cc1cc(C(=O)CSC(=S)SC(C)(C)C)ccc1Cl`, the T/C is 100 % of control under setting [6]; 96 % of control under setting [15]; 90 % of control (dose: 240.0 mg/kg/injection, schedule: Q01DX005 (ip), vehicle: saline with Tween-80).
Regarding `CC1OC(CC(=O)O)CC2=C1C(=O)c1c(O)cccc1C2=O` (centres undefined), the T/C was 94 % of control (dose: 3.13 mg/kg/injection, schedule: Q01DX009 (ip), vehicle: saline with Tween-80); 115 % of control and 117 % of control (dose: 6.25 mg/kg/injection, schedule: Q01DX009 (ip), vehicle: saline with Tween-80); 110 % of control and 115 % of control under setting [13]; 101 % of control and 114 % of control under setting [14].
As for `C=C(C)c1nc(N)nc(NCc2ccccc2)n1`, the T/C is, setting by setting: under setting [1], 100 % of control; under setting [2], 102 % of control; under setting [3], 109 % of control.
For `c1ccc2c(c1)c1c(c3ccccc32)CN2CCCC2C1` (centres undefined), in that order: 105 % of control, 101 % of control and 110 % of control.
`CC(NCCNC(C)C(=O)O)C(=O)O` (centres undefined): the T/C by setting is: under setting [21], 101 % of control; (dose: 100.0 mg/kg/injection, schedule: Q01DX005 (ip), vehicle: saline) 103 % of control; (dose: 200.0 mg/kg/injection, schedule: Q01DX005 (ip), vehicle: saline) 100 % of control.
Take `CC1CCC2(C(=O)O)CCC3(C)C(=CCC4C5(C)CCC(O)C(C)(C)C5CCC43C)C2C1C` (centres undefined): the T/C runs as follows: (dose: 22.0 mg/kg/injection, schedule: Q01DX010 (ip), vehicle: acetone) 108 % of control; (dose: 35.0 mg/kg/injection, schedule: Q01DX010 (ip), vehicle: acetone) 95 % of control.
As for `N#Cc1nc(CC(=O)/C=C/c2ccccc2)c(CC(=O)/C=C/c2ccccc2)nc1C#N`, the T/C runs as follows: under setting [17], 103 % of control; under setting [18], 103 % of control; under setting [19], 112 % of control.
On to `CC(=O)c1c(C)nc2c(-c3ccccc3)[nH]c(C)c2c1C`, for which the T/C reads like this: (dose: 100.0 mg/kg/injection, schedule: Q04DX003 (ip), vehicle: Klucel (hydroxypropylcellulose) (HPC)) 100 % of control; (dose: 200.0 mg/kg/injection, schedule: Q04DX003 (ip), vehicle: Klucel (hydroxypropylcellulose) (HPC)) 102 % of control; (dose: 400.0 mg/kg/injection, schedule: Q04DX003 (ip), vehicle: Klucel (hydroxypropylcellulose) (HPC)) 111 % of control.
Turning to `CN1CC2CCCCN2CC(Cc2ccccc2)([N+](=O)[O-])C1` (centres undefined), the T/C was 109 % of control (dose: 100.0 mg/kg/injection, schedule: Q04DX002 (ip), vehicle: saline) and 109 % of control (dose: 200.0 mg/kg/injection, schedule: Q04DX002 (ip), vehicle: saline).
Take `CN=C(c1ccc(NC(=O)c2cc(C(=O)Nc3ccc(C(=NC)N(C)C)cc3)cc([N+](=O)[O-])c2)cc1)N(C)C`: the T/C by setting is: (dose: 6.25 mg/kg/injection, schedule: Q01DX005 (ip), vehicle: saline) 101 % of control; under setting [20], 98 % of control.
For the compound `Cc1cnc2c(N)cc(C)c(C)c2c1`, the T/C by setting is: under setting [13], 94 % of control; under setting [14], 100 % of control; under setting [10], 99 % of control and 100 % of control; under setting [11], 86 % of control.
With `CC(=O)OC1CC2C(C)(C)C(=O)C=CC2(C)C2CCC3(C)C(c4ccoc4)CC(=O)C3C12C` (centres undefined), the T/C runs as follows: (dose: 0.5 mg/kg/injection, schedule: Q01DX005 (ip), vehicle: Klucel (hydroxypropylcellulose) (HPC)) 99 % of control; (dose: 1.0 mg/kg/injection, schedule: Q01DX005 (ip), vehicle: Klucel (hydroxypropylcellulose) (HPC)) 100 % of control; (dose: 2.0 mg/kg/injection, schedule: Q01DX005 (ip), vehicle: Klucel (hydroxypropylcellulose) (HPC)) 97 % of control; (dose: 4.0 mg/kg/injection, schedule: Q01DX005 (ip), vehicle: Klucel (hydroxypropylcellulose) (HPC)) 100 % of control; (dose: 8.0 mg/kg/injection, schedule: Q01DX005 (ip), vehicle: Klucel (hydroxypropylcellulose) (HPC)) 98 % of control.
In the case of `CCCCCCCCCCCCCCCC[N+]1([O-])CCCC1`, under setting [16], the T/C is 102 % of control.
Regarding `C[C@@]12O[C@]1(C)[C@@H]1[C@H]3O[C@H]3[C@@H]2N(C(=O)OCC(Cl)(Cl)Cl)N1C(=O)OCC(Cl)(Cl)Cl`, the T/C runs as follows: under setting [1], 100 % of control; under setting [2], 105 % of control; under setting [3], 100 % of control.
For the compound `CSc1n[nH]c(N)c1C(N)=O`, the T/C (dose: 100.0 mg/kg/injection, schedule: Q01DX001 (ip), vehicle: saline with Tween-80) was 107 % of control; the T/C (dose: 200.0 mg/kg/injection, schedule: Q01DX001 (ip), vehicle: saline with Tween-80) was 100 % of control; the T/C (dose: 400.0 mg/kg/injection, schedule: Q01DX001 (ip), vehicle: saline with Tween-80) is 111 % of control.
